Laboratory results from article PMC4360222 (International Journal of Neuropsychopharmacology, 2015).
Like-named read-outs stand apart in the source and are kept apart here.

Experiments:
D2 receptors = conditions: ref Clark et al., 1985; Burris et al., 2002; Tadori et al., 2005; cited from earlier work
[1] = biological target: T1, D2-like autoreceptors (rat brain striatal minces, [3H]-DA synthesis) (Rattus norvegicus, UniProt P61169); test: cell-based
[2] = biological target: T1, D2-like autoreceptors (rat brain striatal minces, [3H]-DA synthesis)

T1 sequence (P61169 1-415 isoform P61169-2): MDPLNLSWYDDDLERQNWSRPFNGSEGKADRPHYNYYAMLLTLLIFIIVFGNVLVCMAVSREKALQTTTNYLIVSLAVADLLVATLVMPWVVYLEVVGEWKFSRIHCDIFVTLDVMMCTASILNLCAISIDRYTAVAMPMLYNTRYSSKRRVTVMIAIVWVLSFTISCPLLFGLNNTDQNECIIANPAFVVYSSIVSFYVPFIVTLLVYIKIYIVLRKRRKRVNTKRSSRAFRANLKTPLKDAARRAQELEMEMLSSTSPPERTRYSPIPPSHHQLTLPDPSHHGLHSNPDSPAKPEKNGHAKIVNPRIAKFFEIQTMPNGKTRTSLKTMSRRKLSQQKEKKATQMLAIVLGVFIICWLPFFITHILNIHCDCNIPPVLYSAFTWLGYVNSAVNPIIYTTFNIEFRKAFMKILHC

SMILES | reported affinity for D2 receptors (D2 receptors) | Emax ([1]; read-out: Emax, inhibition of [3H]-dopamine synthesis, basal 2mM K+) | Emax ([1]; read-out: Emax, inhibition of [3H]-dopamine synthesis, stimulated 15mM K+) | Emax ([1]; read-out: maximal effect on DA synthesis, 2mM K+) | Emax ([1]; read-out: maximal effect on DA synthesis, 15mM K+) | blockade of QUIN decrease of DA synthesis by antagonist ([2]; 2mM K+, data not shown) | reversal of decrease in DA synthesis elicited by 1nM S-(-)-PPP ([2]; sulpiride 100nM) | blockade of effect of ARI 1 µM on DA synthesis ([2]; sulpiride 1 µM, 2mM K+) | blockade of inhibitory effect of ARI 10nM on DA synthesis ([2]; sulpiride 1 µM, 2mM K+)
CCCN1CCC[C@@H](c2cccc(O)c2)C1 [Preclamol (S-(-)-PPP), (-)-3-(3-hydroxyphenyl)-N-n-propylpiperidine] | high-nanomolar/low-micromolar range | 34% | 31% | -34% | -31% |  |  |  | 
CCN1CCC[C@H]1CNC(=O)c1cc(S(N)(=O)=O)ccc1OC [sulpiride, (S)-(-)-sulpiride] |  |  |  |  |  | totally blocked | completely reversed | partially blocked | fully eliminated
